Like-named read-outs stand apart in the source and are kept apart here.
Key:
[1] = system: larvae of the mustard beetle (Phaedon cochleariae); test: Phaedon test (PHAECO spray treatment); conditions: Phaedon cochleariae, in Brassica rapa, foliar, read-out: effect in % (beetle larvae killed)
[2] = system: caterpillars of the armyworm (Spodoptera frugiperda); test: Spodoptera frugiperda test (SPODFR spray treatment); format: in vivo; conditions: Spodoptera frugiperda, foliar, read-out: effect in % (caterpillars killed)
Source text: (§1) Solvent: 78.0 parts by weight of acetone

[3] = system: green peach aphid (Myzus persicae); test: Myzus test (MYZUPE spray treatment); format: in vivo; conditions: Myzus persicae, foliar, read-out: effect in % (aphids killed)
Source text: Solvent: 78 parts by weight of acetone
as §1

[4] = log P determination by HPLC (EEC Directive 79/831 Annex V.A8); format: physicochemical
Protocol: The measurements were carried out using an Agilent 1100 LC system with a 50*4.6 Zorbax Eclipse C18 1.8 μm column (oven temperature 55° C., flow rate 2.0 ml/min).
The following mobile phases were used:
Mobile phase A: acetonitrile+1000 μl of formic acid/l
Mobile phase B: Millipore water+900 μl of formic acid/l

[5] = application rate 100 g/ha, maize leaf discs
[6] = application rate 100 g/ha, Chinese cabbage leaf discs
[7] = reversed-phase HPLC, Zorbax Eclipse C18 column, determined by HPLC according to EEC Directive 79/831 Annex V.A8, read-out: log P
[8] = reversed-phase HPLC, Zorbax Eclipse C18 column, by HPLC according to EEC Directive 79/831 Annex V.A8, read-out: log P

SMILES	pest or weed control at 100 g/ha [1] [%]	pest or weed control at 100 g/ha ([2]; in Zea mays) [%]	pest or weed control at 100 g/ha ([3]; in Brassica rapa) [%]	chromatographic logP ([4]; log P)	pest or weed control at 100 g/ha [2, 5] [%]	pest or weed control at 100 g/ha [3, 6] [%]	chromatographic logP [4, 7]	chromatographic logP [4, 8]	pest or weed control at 20 g/ha ([3]; in Brassica rapa) [%]
Cc1cc(C#N)cc(C(=O)NC2CC2)c1NC(=O)c1cc(Cn2nnnc2C(F)(F)F)nn1-c1ncccc1Cl [Example 166]	≥ 80	≥ 80	≥ 80	2.53					
Cc1cc(C#N)cc(C(=O)NCC2CC2)c1NC(=O)c1cc(Cn2nnc(C(F)(F)F)n2)nn1-c1ncccc1Cl [Example 23]	≥ 80	≥ 80	≥ 80	3.13					
Cc1cc(C#N)cc(C(N)=O)c1NC(=O)c1cc(C(C)n2nnc(C(F)(F)F)n2)nn1-c1ncccc1Cl (stereo not drawn) [Example 437]	≥ 80	≥ 80	≥ 80	2.66					
CC(NC(=O)c1cc(Cl)cc(Cl)c1NC(=O)c1cc(Cn2nnnc2C(F)F)nn1-c1ncccc1Cl)C1CC1 (stereo not drawn) [Example 465]	≥ 80	≥ 80	≥ 80	3.02					
Cc1cc(Cl)cc(C(N)=O)c1NC(=O)c1cc(Cn2nnc(C(F)F)n2)nn1-c1ncccc1Cl [Example 304]	≥ 80	≥ 80	≥ 80	2.32					
Cc1cc(Br)cc(C(=O)NC(C)(C)C)c1NC(=O)c1cc(Cn2nnc(C(F)F)n2)nn1-c1ncccc1Cl [Example 309]	≥ 80	≥ 80	≥ 80	3.36					
CNC(=O)c1cc(I)cc(C)c1NC(=O)c1cc(Cn2nnnc2C(F)(F)F)nn1-c1ncccc1C(F)(F)F [Example 452]	≥ 80				≥ 80	≥ 80	3.07		
CNC(=O)c1cc(Br)cc(C)c1NC(=O)c1cc(Cn2nnc(C(F)(F)F)n2)nn1-c1ncccc1Br [Example 354]	≥ 80				≥ 80	≥ 80		3.12	
CNC(=O)c1cc(C#N)cc(C)c1NC(=O)c1cc(Cn2nnc(C(F)(F)F)n2)nn1-c1ccccc1Cl [Example 310]	≥ 80				≥ 80	≥ 80		3.09	
Cc1cc(C#N)cc(C(=O)NCC#N)c1NC(=O)c1cc(Cn2nnc(C(F)F)n2)nn1-c1ncccc1Cl [Example 271]	≥ 80	≥ 80	≥ 80	2.19					
Cc1cc(C#N)cc(C(=O)NC(C)(C)C)c1NC(=O)c1cc(Cn2nnnc2C(F)(F)C(F)(F)F)nn1-c1ncccc1Cl [Example 446]	≥ 80	≥ 80	≥ 80	3.47					
CSC[C@H](C)NC(=O)c1cc(C)cc(C)c1NC(=O)c1cc(Cn2nnc(C(F)(F)F)n2)nn1-c1ncccc1Cl [Example 86]	≥ 80	≥ 80	≥ 80	3.5					
Cc1cc(Br)cc(C(=O)NCC#N)c1NC(=O)c1cc(Cn2nnc(C(F)(F)F)n2)nn1-c1ncccc1Cl [Example 52]	≥ 80	≥ 80	≥ 80	3.02					
Cc1cc(I)cc(C(=O)NC(C)(C)C)c1NC(=O)c1cc(Cn2nnnc2C(F)(F)F)nn1-c1ncccc1Cl [Example 183]	≥ 80	≥ 80	≥ 80	3.74					
Cc1cc(C#N)cc(C(=O)NC2CC2)c1NC(=O)c1cc(Cn2nnnc2C(F)(F)C(F)(F)F)nn1-c1ncccc1Cl [Example 445]	≥ 80	≥ 80	≥ 80	2.95					
CNC(=O)c1cc(C#N)cc(C)c1NC(=O)c1cc(Cn2nnc(C(F)(F)F)n2)nn1-c1c(Cl)cccc1Cl [Example 312]	≥ 80				≥ 80	≥ 80		3.28	
CCC(C)NC(=O)c1cc(C#N)cc(C)c1NC(=O)c1cc(Cn2nnc(C(F)(F)F)n2)nn1-c1ncccc1Cl (stereo not drawn) [Example 97]	≥ 80	≥ 80		3.32					≥ 80
CNC(=O)c1cc(C#N)cc(C)c1NC(=O)c1cc(C(C)n2nnc(C(F)(F)F)n2)nn1-c1ncccc1Cl (stereo not drawn) [Example 542]	≥ 80	≥ 80	≥ 80	2.86					
Cc1cc(Cl)cc(C(=O)NC(C)C2CC2)c1NC(=O)c1cc(Cn2nnc(C(F)(F)F)n2)nn1-c1ncccc1Cl (stereo not drawn) [Example 30]	≥ 80	≥ 80	≥ 80	3.79					
Cc1cc(C#N)cc(C(=O)NC(C2CC2)C2CC2)c1NC(=O)c1cc(Cn2nnnc2C(F)(F)F)nn1-c1ncccc1Cl [Example 196]	≥ 80	≥ 80	≥ 80	3.28					
CNC(=O)c1cc(C#N)cc(C)c1NC(=O)c1cc(Cn2nnnc2C(F)F)nn1-c1ncccc1Cl [Example 472]	≥ 80	≥ 80	≥ 80	1.97					
Cc1cc(C#N)cc(C(=O)NC(C)(C)C)c1NC(=O)c1cc(Cn2nnnc2C(F)(F)C(F)(F)F)nn1-c1ncccc1Br [Example 518]	≥ 80				≥ 80	≥ 80	3.47		
CNC(=O)c1cc(C#N)cc(C)c1NC(=O)c1cc(Cn2nnnc2C(F)(F)C(F)(F)F)nn1-c1ncccc1Br [Example 516]	≥ 80				≥ 80	≥ 80	2.72		
Cc1cc(Cl)cc(C(N)=O)c1NC(=O)c1cc(Cn2nnc(C(F)(F)F)n2)nn1-c1ncccc1C(F)(F)F [Example 238]	≥ 80				≥ 80	≥ 80		2.97	
CCNC(=O)c1cc(C#N)cc(C)c1NC(=O)c1cc(Cn2nnc(C(F)(F)F)n2)nn1-c1ccccc1Cl [Example 342]	≥ 80				≥ 80	≥ 80		3.36	
CCC(C)NC(=O)c1cc(C#N)cc(C)c1NC(=O)c1cc(Cn2nnc(C(F)(F)F)n2)nn1-c1ccccc1Cl (stereo not drawn) [Example 530]	≥ 80				≥ 80	≥ 80	3.81		
Cc1cc(Cl)cc(C(=O)NCC2CC2)c1NC(=O)c1cc(Cn2nnc(C(F)F)n2)nn1-c1ncccc1Cl [Example 259]	≥ 80	≥ 80	≥ 80	3.04					

Source: patent publication US8324390B2, “Tetrazole-substituted anthranilamides as pesticides” (Bayer CropScience AG, priority 2008, dated 2012)
